According to US8710102B2, “Use of beta-adrenoceptor antagonists for the manufacture of a medicament of the treatment of disorders of the outer retina” (Novartis AG, priority 1999, dated 2014):

Legend:
cortical cultures = settings: in vitro; literature; cited from earlier work
Male Sprague Dawley rats [1] = settings: 0.5% topical ocular b.i.d.; for Protection of retinal function compared to vehicle dosed rats: two drops per eye, 17 days before and 2 days after light exposure, ERG five days after
Method: The purpose of this experiment was to determine the degree of retinal protection that could be measured in rats following topical ocular dosing. Levobetaxolol (0.5%), (racemic) betaxolol (0.5%), and vehicle were evaluated in the photic retinopathy model. Induction of photochemical lesions and evaluation of retinal function with the ERG were performed as described in the photo-oxidative induced retinopathy paradigm used in Example 1.
Male Sprague Dawley rats were randomly assigned to either a vehicle dosed group (N=10), (racemic) betaxolol (0.5%) dosed group (N=10) or levobetaxolol (0.5%) dosed group (N=10). Rats were dosed topical ocular (b.i.d.) with two drops per eye. Rats were pre-dosed for 17 days prior to light exposure and dosed an additional two days after the light exposure. Control rats (N=4) were housed in their home cage under normal cyclic light exposure.

[2] = system: rat ischemia/reperfusion injury model; settings: literature; cited from earlier work
chick retinal cells = settings: in vitro; literature; cited from earlier work
Male Sprague Dawley rats [3] = test: Photo-oxidative (blue-light) induced retinopathy, systemic IP dosing, ERG; settings: for Protection of retina function against light-induced retinal degeneration: 20 and 40 mg/kg IP; for Persistence of protection after a 4-week recovery period: IP dosing
Source text: The purpose of Experiment 1 was to determine if selective β-adrenoceptor antagonists, in particular betaxolol (racemic), levobetaxolol (S-isomer), and betaxolol (R-isomer) are neuroprotective and can rescue retinal cells from a photo-oxidative induced retinopathy. The purpose of Experiment 2 was to determine the dose-dependent efficacy of timolol, a potent non-selective β1- and β2-blocker, in this photo-oxidative stress model. Male Sprague Dawley rats were randomly assigned to drug or vehicle experimental groups. Rats received three intraperitoneal (IP) injections of either vehicle or drug at 48, 24, and 0 hours prior to a 6-hour light exposure to spectrally filtered blue light (˜220 fc). Control rats were housed in their home cage under normal cyclic light exposure. Control rats were not dosed with either vehicle or drug. The ERG is a non-invasive clinical measurement of the electrical response of the eye to a flash of light. The a-wave and b-wave are two components of the ERG that are diagnostic of retinal function. The a-wave reflects outer retina function and is generated by interactions between photoreceptor and RPE while the b-wave reflects inner retina function, particularly on-bipolar cells. […] Changes in the a-wave amplitude or latency are diagnostic of outer retina pathology. The ERG was recorded after a five day recovery period from dark-adapted anesthetized rats (ketamine-HCl, 75 mg/Kg; xylazine, 6 mg/Kg). The eye's electrical response to a flash of light was elicited by viewing a ganzfeld. ERGs to a series of light flashes increasing in intensity were digitized to analyze temporal characteristics of the waveform and response voltage-log intensity relationship.

rabbit inner retina = settings: in vitro; literature; cited from earlier work
[4] = Light damage paradigms: prevention of light-induced functional or morphological changes; format: in vivo; settings: applicant's light damage paradigms
CNTF mRNA = test: Retinal CNTF mRNA upregulation, Northern blot after single IP injection; settings: single IP injection 20 mg/kg; retina harvested after 12 hours in the dark; CNTF/18S
bFGF mRNA = test: Retinal bFGF mRNA upregulation, Northern blot after single IP injection; settings: single IP injection 20 mg/kg; retina harvested after 12 hours in the dark; bFGF/18S
[5] = system: P23H mutant rhodopsin transgenic rats
Method: The P23H rhodopsin mutated transgenic rat has a specific rhodopsin mutation that has been identified in subsets of patients with RP. This degeneration is characterized by a slow degeneration of retinal photoreceptors and marked reduction in the electroretinogram. As in light damage, photoreceptor loss is primarily through an apoptotic process.
At the time of weaning, rats are randomly assigned to either a drug or vehicle group. Rats were dosed (oral gavage) with vehicle or levobetaxolol (40 mg/kg,) every other day. […] ERGs were recorded as described in Example 1.

CC(C)NCC(O)COc1ccc(CCOCC2CC2)cc1 (racemic) [betaxolol (racemic), betaxolol]
Glutamate-induced release of lactate dehydrogenase (cortical cultures): partially prevented | ERG response amplitudes vs vehicle dosed rats (Male Sprague Dawley rats [1]): higher but not significantly different | Protection of retinal function compared to vehicle dosed rats (Male Sprague Dawley rats [1]): No significant protection | ERG b-wave deficit after ischemia/reperfusion [2]: protected | Kainate induced elevation of intracellular calcium (chick retinal cells): prevent | Maximum a-wave response amplitude, fold higher than vehicle dosed rats (Male Sprague Dawley rats [3]; 20 mg/kg IP at 48, 24, 0 h before 6-hour blue light, 5-day recovery): 1.9 fold | Maximum a-wave response amplitude, fold higher than vehicle dosed rats (Male Sprague Dawley rats [3]; 40 mg/kg IP at 48, 24, 0 h before 6-hour blue light, 5-day recovery): 2.1 fold | Protection of retina function against light-induced retinal degeneration (Male Sprague Dawley rats [3]; 5-day recovery): dose-dependent protection | Changes in GABA immunoreactivity following glucose-oxygen deprivation (rabbit inner retina): partially inhibited

CC(C)NCC(O)COc1ccc(CCOCC2CC2)cc1 (stereo not drawn) [Betaxolol (R-isomer), betaxolol]
Protection of retina function against light-induced retinal degeneration (Male Sprague Dawley rats [3]; 5-day recovery): Partial but significant protection | ERGs, % of normal (Male Sprague Dawley rats [3]; 20 or 40 mg/kg IP): approximately 64% | Persistence of protection after a 4-week recovery period (Male Sprague Dawley rats [3]): persisted

Cc1c(C)c2c(c(C)c1O)CC[C@@](C)(CCC[C@H](C)CCC[C@H](C)CCCC(C)C)O2 [alpha-tocopherol]
Effectiveness in preventing light-induced functional or morphological changes [4]: ineffective

Brc1c(NC2=NCCN2)ccc2nccnc12 [brimonidine]
CNTF mRNA expression upregulation, factor compared to background expression (CNTF mRNA): not upregulated | Increase in bFGF mRNA expression (bFGF mRNA): 14 fold

Fc1ccc(C(c2ccc(F)cc2)N2CCN(C/C=C/c3ccccc3)CC2)cc1 [flunarizine]
Effectiveness in preventing light-induced functional or morphological changes [4]: moderately effective

CC(C)NC[C@H](O)COc1ccc(CCOCC2CC2)cc1 [levobetaxolol]
Amelioration of photic induced retinopathy (retinal function vs control rats) (Male Sprague Dawley rats [1]): completely to ameliorated | Protection of retinal function compared to vehicle dosed rats (Male Sprague Dawley rats [1]): significant protection | CNTF mRNA expression upregulation, factor compared to background expression (CNTF mRNA): 2.3 | ERG amplitude relative to vehicle-dosed rats (Male Sprague Dawley rats [3]; 20 mg/kg IP, 5-day recovery): twice | ERG amplitudes, % of normal (Male Sprague Dawley rats [3]; 20 mg/kg IP, 5-day recovery): 69% | Protection of the retinal response to a flash of light (Male Sprague Dawley rats [3]; 40 mg/kg IP, 5-day recovery): Complete protection | Protection of retina function against light-induced retinal degeneration (Male Sprague Dawley rats [3]; 5-day recovery): significant protection | Persistence of protection after a 4-week recovery period (Male Sprague Dawley rats [3]): persisted | Increase in bFGF mRNA expression (bFGF mRNA): 13 fold | Outer retinal function, % better than vehicle dosed rats ([5]; 40 mg/kg oral every other day, 6-month old rats): 32% | Loss of retinal function compared to vehicle dosed rats ([5]; 40 mg/kg oral gavage every other day, 3- and 6-month old rats): significantly attenuated

COCCOC(=O)C1=C(C)NC(C)=C(C(=O)OC(C)C)C1c1cccc([N+](=O)[O-])c1 (stereo not shown) [nimodipine]
Effectiveness in preventing light-induced functional or morphological changes [4]: no effect
